Our source for the Ki values is patent publication US8410310B2, “Trypsin-like serine protease inhibitors, and their preparation and use” (The Medicines Company (Leipzig) GmbH, priority 2006, dated 2013).

Read-outs that look alike come from different tables or passages of the source.

Assay type in all cases: biochemical
In one assay the target is plasmin (Homo sapiens, UniProt P00747). Kind of assay: Determination of inhibition constants for plasmin. Further details: purchased Calbiochem. On the procedure:
(§1) The inhibitory effect for the individual enzymes was determined in analogy to a previously disclosed method (Stürzebecher et al., 1997).
(§2) For zero order kinetics, the reaction was stopped after 20 min by adding 25 μl of acetic acid (50% v/v), and the absorption at 405 nm was determined using a Microplate Reader (Multiscan Ascent, from Thermo). In the case of pseudo-first order kinetics, the reaction rates in the equilibrium state were ascertained by recording the reaction kinetics. The Ki values were ascertained either in accordance with Dixon (1953) by linear regression using a computer program or by parameter fitting in accordance with the rate equation for competitive inhibition. The Ki values are the average of at least two determinations.

The target of a further assay is Thrombin (Homo sapiens, UniProt P00734). Kind of assay: Determination of inhibition constants for thrombin. On the procedure: as §1, §2
The target in a further assay is Xa (Homo sapiens, UniProt P00742). Kind of assay: Determination of inhibition constants for Xa. The procedure: as §1, §2
Chain of Xa (P00742 235-488 limits assumed): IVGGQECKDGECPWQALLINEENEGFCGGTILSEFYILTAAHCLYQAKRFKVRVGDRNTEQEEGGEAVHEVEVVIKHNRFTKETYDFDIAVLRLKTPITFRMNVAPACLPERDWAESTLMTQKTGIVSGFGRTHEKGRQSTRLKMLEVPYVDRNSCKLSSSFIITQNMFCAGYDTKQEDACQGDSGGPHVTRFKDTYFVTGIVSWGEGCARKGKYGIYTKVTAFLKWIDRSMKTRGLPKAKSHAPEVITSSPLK
Chain of Xa (P00742 41-179 limits assumed): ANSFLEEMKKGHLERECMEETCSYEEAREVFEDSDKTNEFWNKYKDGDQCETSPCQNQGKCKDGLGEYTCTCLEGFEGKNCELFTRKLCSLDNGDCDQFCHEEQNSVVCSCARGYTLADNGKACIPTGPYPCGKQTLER
For a further assay, the target named is plasma kallikrein (Homo sapiens, UniProt P03952). Kind of assay: Determination of inhibition constants for PK. Further details: purchased Enzyme Research Lab. / Enzyme Research Laboratories. On the procedure: as §1, §2
Chain of plasma kallikrein (P03952 391-638 limits assumed): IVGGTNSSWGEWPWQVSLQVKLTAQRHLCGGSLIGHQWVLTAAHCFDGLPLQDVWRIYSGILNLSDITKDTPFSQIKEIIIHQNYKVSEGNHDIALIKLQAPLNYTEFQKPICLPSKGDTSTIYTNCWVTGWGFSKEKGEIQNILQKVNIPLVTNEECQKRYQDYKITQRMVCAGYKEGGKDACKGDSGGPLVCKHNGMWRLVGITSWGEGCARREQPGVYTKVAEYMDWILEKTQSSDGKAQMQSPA
Chain of plasma kallikrein (P03952 20-390 partner limits assumed): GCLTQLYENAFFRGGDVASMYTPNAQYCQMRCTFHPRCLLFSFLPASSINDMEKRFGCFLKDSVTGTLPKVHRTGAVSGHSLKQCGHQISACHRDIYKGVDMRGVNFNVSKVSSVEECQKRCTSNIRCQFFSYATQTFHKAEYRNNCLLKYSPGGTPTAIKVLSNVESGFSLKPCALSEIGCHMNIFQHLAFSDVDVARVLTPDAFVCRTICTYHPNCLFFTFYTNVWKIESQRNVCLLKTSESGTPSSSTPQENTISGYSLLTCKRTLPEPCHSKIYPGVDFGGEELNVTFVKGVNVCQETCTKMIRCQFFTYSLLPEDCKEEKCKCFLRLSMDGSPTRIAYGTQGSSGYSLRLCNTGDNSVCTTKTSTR
[1] abbreviates: 25° C., substrate Chromozym PL, pH 8.0, read-out: Plasmin [Ki].
Where [2] appears, read: 25° C., substrate S2302, pH 8.0, read-out: PK [Ki].
[3] abbreviates: summary of results, read-out: Ki value of the plasmin inhibition.

Chain of plasmin (P00747 581-810 limits assumed): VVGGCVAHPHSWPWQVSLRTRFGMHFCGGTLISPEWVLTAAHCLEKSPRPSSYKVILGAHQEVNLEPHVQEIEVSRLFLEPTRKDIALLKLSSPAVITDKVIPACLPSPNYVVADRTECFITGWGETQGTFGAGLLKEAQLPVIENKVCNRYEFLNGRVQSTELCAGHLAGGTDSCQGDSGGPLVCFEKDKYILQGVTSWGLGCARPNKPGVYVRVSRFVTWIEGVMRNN
Chain of plasmin (P00747 97-580 partner limits assumed): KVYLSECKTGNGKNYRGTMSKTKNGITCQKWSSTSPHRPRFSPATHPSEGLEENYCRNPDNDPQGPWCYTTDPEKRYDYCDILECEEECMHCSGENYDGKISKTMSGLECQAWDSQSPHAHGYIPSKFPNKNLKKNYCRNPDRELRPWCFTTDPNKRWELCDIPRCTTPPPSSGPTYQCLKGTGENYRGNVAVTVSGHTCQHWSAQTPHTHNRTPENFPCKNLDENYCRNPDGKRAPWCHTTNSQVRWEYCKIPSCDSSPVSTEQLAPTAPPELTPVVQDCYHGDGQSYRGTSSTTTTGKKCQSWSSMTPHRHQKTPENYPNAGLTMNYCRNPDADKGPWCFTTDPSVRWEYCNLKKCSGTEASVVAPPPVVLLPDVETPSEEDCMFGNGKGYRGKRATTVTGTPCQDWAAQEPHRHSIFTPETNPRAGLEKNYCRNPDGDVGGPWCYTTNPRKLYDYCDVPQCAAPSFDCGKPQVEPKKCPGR

As usually defined, the Ki is the dissociation constant of the complex between target and ligand, obtained from inhibition or displacement. In the case of `N=C(N)c1ccc(CNC(=O)[C@H](Cc2cccc(CN)c2)NC(=O)[C@@H](CCCc2ccc(C(F)(F)F)cc2)NS(=O)(=O)Cc2ccccc2)cc1` [compound 11], the Ki on plasmin (setting [1]) is less than 0.01 µM; on Thrombin, less than 1 µM; on Xa it was less than 0.01 µM; at plasma kallikrein (setting [2]), less than 0.01 µM.
On to `N=C(N)c1ccc(CNC(=O)[C@H](Cc2cccc(CN)c2)NC(=O)[C@@H](Cc2ccc3ccccc3c2)NS(=O)(=O)Cc2cccc(C(=O)O)c2)cc1` [compound 18], for which the Ki at plasmin (setting [1]) is less than 0.01 µM; on Thrombin, more than 1 µM; on Xa, less than 0.1 µM; on plasma kallikrein (setting [2]) it was less than 0.01 µM.
Regarding `N=C(N)c1ccc(CNC(=O)[C@H](CCc2ccncc2)NC(=O)[C@@H](CCc2ccccc2)NS(=O)(=O)Cc2ccccc2)cc1` [compound 44], the Ki at plasmin (setting [1]), on Thrombin, at Xa and on plasma kallikrein (setting [2]) was less than 0.1 µM throughout.
`N=C(N)c1ccc(CNC(=O)[C@H](CCc2ccccc2)NC(=O)[C@@H](CCCc2ccncc2)NS(=O)(=O)Cc2cccc(C(=O)O)c2)cc1` [compound 50]: the Ki is less than 0.01 µM on plasmin (setting [1]), less than 1 µM on Thrombin, less than 0.1 µM on Xa and less than 0.01 µM at plasma kallikrein (setting [2]).
On to `N=C(N)c1ccc(CNC(=O)[C@H](Cc2cccc(CN)c2)NC(=O)[C@@H](CCCc2ccc(Cl)cc2)NS(=O)(=O)Cc2ccccc2)cc1` [compound 7], for which the Ki was less than 0.01 µM on plasmin (setting [1]), less than 0.1 µM at Thrombin, less than 0.01 µM at Xa and less than 0.01 µM at plasma kallikrein (setting [2]).
On to `N=C(N)c1ccc(CNC(=O)[C@H](Cc2ccc(C(=N)N)cc2)NC(=O)[C@@H](CO)NS(=O)(=O)Cc2ccccc2)cc1` [compound 76], for which the Ki at plasmin (setting [1]) is less than 0.1 µM; at Thrombin, more than 1 µM; on Xa, more than 1 µM; at plasma kallikrein (setting [2]), less than 0.1 µM.
Regarding `N=C(N)c1ccc(CNC(=O)[C@H](CCc2ccccc2)NC(=O)[C@@H](CCCc2cc[n+]([O-])cc2)NS(=O)(=O)Cc2ccccc2)cc1` [compound 53], the inhibition constant Ki on plasmin (setting [1]) is less than 0.01 µM; on Thrombin it was less than 0.1 µM; on Xa, less than 0.01 µM; on plasma kallikrein (setting [2]), less than 0.01 µM.
With `CC(C)(C)OC(=O)NCCCC[C@@H](NS(=O)(=O)Cc1ccccc1)C(=O)N[C@@H](Cc1cccc(CN)c1)C(=O)NCc1ccc(C(=N)N)cc1` [compound 57], the Ki on plasmin (setting [1]) was less than 0.01 µM; at Thrombin, more than 1 µM; on Xa, less than 0.1 µM; on plasma kallikrein (setting [2]), less than 0.01 µM.
On to `N=C(N)c1ccc(CNC(=O)[C@H](Cc2ccc(CN)cc2)NC(=O)[C@@H](CCCc2ccccc2)NS(=O)(=O)Cc2ccccc2)cc1` [compound 28], for which the Ki on plasmin (setting [1]) was less than 0.01 µM; at Thrombin, less than 1 µM; on Xa it was less than 1 µM; at plasma kallikrein (setting [2]), less than 0.01 µM.
With `CC(C)(C)OC[C@@H](NS(=O)(=O)Cc1ccccc1)C(=O)N[C@@H](Cc1cccc(CN)c1)C(=O)NCc1ccc(C(=N)N)cc1` [compound 63], the Ki at plasmin (setting [1]) is less than 0.01 µM; on Thrombin, less than 1 µM; on Xa, less than 1 µM; at plasma kallikrein (setting [2]), less than 0.01 µM.
Take `N=C(N)c1ccc(CNC(=O)[C@H](CCc2ccc(CN)cc2)NC(=O)[C@@H](CC2CCCCC2)NS(=O)(=O)Cc2ccccc2)cc1` [compound 37]: the inhibitory constant (Ki) on plasmin (setting [1]), on Thrombin, on Xa and on plasma kallikrein (setting [2]) was less than 0.1 µM throughout.
As for `N=C(N)c1ccc(CNC(=O)[C@H](CCc2ccccc2)NC(=O)[C@@H](CCCc2ccccc2)NS(=O)(=O)Cc2ccc(C(=O)O)cc2)cc1` [compound 35], the inhibitory constant (Ki) at plasmin (setting [1]) is less than 0.01 µM; on plasmin (setting [3]), less than 0.005 µM; on Thrombin, less than 1 µM; at Xa, less than 1 µM; at plasma kallikrein (setting [2]), less than 0.01 µM.
For the compound `N=C(N)c1ccc(CNC(=O)[C@H](Cc2cccc(CN)c2)NC(=O)[C@@H](CCc2ccc(O)cc2)NS(=O)(=O)Cc2ccccc2)cc1` [compound 24], the Ki is less than 0.01 µM on plasmin (setting [1]), less than 1 µM at Thrombin, less than 0.01 µM at Xa and less than 0.01 µM on plasma kallikrein (setting [2]).
For the compound `N=C(N)c1ccc(CNC(=O)[C@H](Cc2c[nH]cn2)NC(=O)[C@@H](CCCc2ccccc2)NS(=O)(=O)Cc2cccc(C(=O)O)c2)cc1` [compound 33], the inhibition constant (Ki) on plasmin (setting [1]) is less than 0.01 µM; on Thrombin it was more than 1 µM; at Xa it was less than 1 µM; on plasma kallikrein (setting [2]), less than 0.1 µM.
Regarding `Cc1ccc(CCC[C@@H](NS(=O)(=O)Cc2ccccc2)C(=O)N[C@@H](Cc2cccc(CN)c2)C(=O)NCc2ccc(C(=N)N)cc2)cc1` [compound 9], the Ki at plasmin (setting [1]) was less than 0.01 µM; at Thrombin, less than 1 µM; at Xa, less than 0.1 µM; at plasma kallikrein (setting [2]), less than 0.01 µM.
Turning to `COC(=O)c1ccc(CS(=O)(=O)N[C@H](CO)C(=O)N[C@@H](Cc2cccc(CN)c2)C(=O)NCc2ccc(C(=N)N)cc2)cc1` [compound 69], the Ki at plasmin (setting [1]) is less than 0.1 µM; at Thrombin it was more than 1 µM; at Xa it was more than 1 µM; on plasma kallikrein (setting [2]) it was less than 0.01 µM.
In the case of `CC(C)(C)OC[C@@H](NS(=O)(=O)Cc1cccc(C(=O)O)c1)C(=O)N[C@@H](Cc1cccc(CN)c1)C(=O)NCc1ccc(C(=N)N)cc1` [compound 67], the Ki at plasmin (setting [1]) was less than 0.01 µM; on Thrombin, more than 1 µM; at Xa, less than 0.1 µM; at plasma kallikrein (setting [2]), less than 0.01 µM.
In the case of `N=C(N)c1ccc(CNC(=O)[C@H](CCc2cccc(CN)c2)NC(=O)[C@@H](CO)NS(=O)(=O)Cc2ccccc2)cc1` [compound 74], the Ki at plasmin (setting [1]) was less than 0.1 µM; at Thrombin, more than 1 µM; on Xa, more than 1 µM; on plasma kallikrein (setting [2]) it was less than 0.1 µM.
In the case of `CC(C)(C)OC[C@@H](NS(=O)(=O)Cc1ccccc1)C(=O)N[C@@H](Cc1cccc(CN)c1)C(=O)NCc1ccc(C(=N)N)cc1` [compound 71], on Xa, the Ki was more than 1 µM.
Turning to `CC(C)(C)c1ccc(C[C@@H](NS(=O)(=O)Cc2ccccc2)C(=O)N[C@@H](Cc2cccc(CN)c2)C(=O)NCc2ccc(C(=N)N)cc2)cc1` [compound 13], the Ki on plasmin (setting [1]) was less than 0.1 µM; on plasmin (setting [3]), less than 0.005 µM; at Thrombin it was less than 1 µM; on Xa, less than 0.1 µM; at plasma kallikrein (setting [2]) it was less than 0.01 µM.
For `N=C(N)c1ccc(CNC(=O)[C@H](Cc2cccc(CN)c2)NC(=O)[C@@H](CN)NS(=O)(=O)Cc2ccccc2)cc1` [compound 61], the Ki on plasmin (setting [1]) is less than 0.1 µM; on Thrombin, more than 1 µM; at Xa it was more than 1 µM; at plasma kallikrein (setting [2]) it was less than 0.01 µM.
`N=C(N)c1ccc(CNC(=O)[C@H](CCc2ccncc2)NC(=O)[C@@H](CCCc2ccccc2)NS(=O)(=O)Cc2ccccc2)cc1` [compound 39]: the Ki at plasmin (setting [1]) was less than 0.01 µM; at plasmin (setting [3]), less than 0.005 µM; on Thrombin it was less than 0.01 µM; at Xa it was less than 0.1 µM; at plasma kallikrein (setting [2]), less than 0.01 µM; at plasma kallikrein (summary of results, read-out: Ki value of the plasma kallikrein inhibition) it was less than 0.001 µM.
For the compound `N=C(N)c1ccc(CNC(=O)[C@H](CCc2cc[n+]([O-])cc2)NC(=O)[C@@H](CCCc2ccccc2)NS(=O)(=O)Cc2ccccc2)cc1` [compound 41], the Ki is less than 0.01 µM on plasmin (setting [1]), less than 0.1 µM on Thrombin, less than 1 µM at Xa and less than 0.01 µM at plasma kallikrein (setting [2]).
Take `N=C(N)c1ccc(CNC(=O)[C@H](Cc2cccc(CN)c2)NC(=O)[C@@H](CO)NS(=O)(=O)Cc2ccccc2)cc1` [compound 72]: at plasma kallikrein (setting [2]), the Ki was less than 0.1 µM.
